Test results taken from paper PMC8752738, “A propolis-derived small molecule ameliorates metabolic syndrome in obese mice by targeting the CREB/CRTC2 transcriptional complex” (Nature Communications, 2022).
Several values for one entry are separate records, joined by “and”; a condition that tells them apart may be missing. Equal entries are not always repeated.

Tests used:
Fasting blood glucose = type: in vivo, mouse; set-up: Blood glucose of CRTC2KO / blood glucose in CRTC2KO, mean: unit not given here; conditions: for blood glucose in CRTC2KO, mean / Blood glucose of CRTC2KO: Figure 9e, 20mg/kg; for blood glucose in CRTC2KO, mean: N 6
HIS-CRTC2-S171A proteins = target: T1, HIS-CRTC2-S171A proteins (Homo sapiens, UniProt Q53ET0, S171A); experiment: Surface plasmon resonance, immobilized HIS-CRTC2-S171A; type: binding
T1 construct: made in house; host or cells: E. coli

[1] = Cholesterol, TG, NEFA and glycerol in serum and liver; type: in vivo, mouse; set-up: liver NEFA, Mean 2 (group mean) / Plasma VLDL cholesterol in db/db mice (VLDL-C) / Plasma VLDL cholesterol in db/db mice, group mean / TC in liver_CT2KO (total cholesterol in the liver of CRTC2-KO) / TC in liver_WT (total cholesterol in the liver) / TC in liver_WT, mean / TC in liver_WT, Mean Diff. VEH vs. drug / TC in liver_CRTC2KO, mean / TC in liver_CRTC2KO, Mean Diff. VEH vs. drug: unit not given here; conditions: for plasma NEFA / plasma NEFA, Mean 2 (group mean): Figure 5g; for plasma NEFA, Mean 2 (group mean): vs 0mg/kg mean 1.02; for liver glycerol/protein: Figure 5i; for hepatic NEFA / liver NEFA, Mean 2 (group mean): Figure 5h; for liver NEFA, Mean 2 (group mean): vs 0mg/kg mean 165.9; for Plasma total cholesterol, Mean 1 (drug group): N 6
Protocol: Serum total cholesterol (TC), LDL cholesterol (LDL-C), and HDL cholesterol (HDL-C) levels were detected using commercial kits (Beihua, China), and serum VLDL protein was determined by ELISA (Jiancheng, China).
The plasma TG and NEFA levels were determined using corresponding kits from Beihua (China) and WAKO (Japan), respectively. The TG levels of liver and WAT were tested by TG kit (Applygene, China). The NEFA in the liver and WAT were extracted by chloroform–methanol and then subjected to NEFA assay (WAKO).

[2] = APC-10mg/kg, individual mice, 10 mg/kg
[3] = APC-20mg/kg, individual mice, 20 mg/kg
[4] = HF mice plasma, APC 10 mg/kg, N=5
[5] = HF mice plasma, APC 10 mg/kg, individual animals

T1 sequence (Q53ET0 whole entry S171A): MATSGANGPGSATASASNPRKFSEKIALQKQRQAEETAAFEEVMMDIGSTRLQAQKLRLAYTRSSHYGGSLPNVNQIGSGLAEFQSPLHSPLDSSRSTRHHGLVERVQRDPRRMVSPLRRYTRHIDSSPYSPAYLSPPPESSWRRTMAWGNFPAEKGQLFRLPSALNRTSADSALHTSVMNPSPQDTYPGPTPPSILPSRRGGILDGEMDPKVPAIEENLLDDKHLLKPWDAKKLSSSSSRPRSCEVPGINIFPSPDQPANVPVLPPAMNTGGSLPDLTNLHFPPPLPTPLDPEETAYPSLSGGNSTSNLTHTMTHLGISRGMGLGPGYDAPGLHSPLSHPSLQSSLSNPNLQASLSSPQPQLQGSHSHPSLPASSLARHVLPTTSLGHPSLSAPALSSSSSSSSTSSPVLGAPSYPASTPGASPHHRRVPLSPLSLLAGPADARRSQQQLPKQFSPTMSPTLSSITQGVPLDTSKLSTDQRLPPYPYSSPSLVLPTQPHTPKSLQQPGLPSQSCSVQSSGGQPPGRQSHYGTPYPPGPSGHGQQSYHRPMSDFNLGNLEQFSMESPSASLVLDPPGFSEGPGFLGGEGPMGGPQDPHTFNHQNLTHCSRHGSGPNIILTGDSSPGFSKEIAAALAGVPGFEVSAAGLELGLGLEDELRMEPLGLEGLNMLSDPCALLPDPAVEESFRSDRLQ

CC(C)=CCc1cc(C=CC(=O)O)cc(CC=C(C)C)c1O [APC, 3,5-diprenyl-4-hydroxycinnamic acid]
fasting blood glucose levels (Fasting blood glucose; DIO and db/db mice, i.p. 20 mg/kg): remarkably decreased
blood glucose in CRTC2KO, mean (Fasting blood glucose; CRTC2KO mice, group mean): 3.317
Blood glucose of CRTC2KO (Fasting blood glucose; CRTC2KO mice, single animals): 3.3 (2×) and 3.8 and 2.6 and 3.1
blood glucose in CRTC2KO, mean (Fasting blood glucose; WT mice, group mean): 3.65
Blood glucose of CRTC2KO (Fasting blood glucose; WT mice, single animals): 2.1 and 3.3 and 3.2 (3×) and 4
FBG in db/db, mean (Fasting blood glucose; Figure 9f, db/db, group mean, n 5): 19.96 mM
Fasting blood glucose (Fasting blood glucose; Figure 9f, db/db, single animals): 13 mM and 22 mM and 26.3 mM and 18.9 mM and 19.6 mM
Fasting blood glucose, mean of column B (Fasting blood glucose; Figure 8d, group mean, n=6, VEH mean 137.4): 91.6 mg/dL
Fasting blood glucose (Fasting blood glucose; Figure 8d, individual mice): 79.2 mg/dL and 84.6 mg/dL and 110.4 mg/dL and 95.4 mg/dL and 102.6 mg/dL and 77.4 mg/dL
fasting blood glucose levels (Fasting blood glucose; db/db mice, one oral delivery 5 mg/kg): little effect
fasting blood glucose in db/db mice, mean (Fasting blood glucose; group mean, n=6): 109.4 mg/dL
effect on fasting blood glucose in Crtc2KO mice (Fasting blood glucose; high-fat diet, oral 20 mg/kg daily, 3 days): abolished
fasting blood glucose in db/db mice (Fasting blood glucose; individual mouse): 141.4 mg/dL and 95.6 mg/dL and 108 mg/dL and 121.6 mg/dL and 83.4 mg/dL and 106.2 mg/dL
affinity to CRTC2 (SPR) (HIS-CRTC2-S171A proteins): no affinity
liver TG normolized by protein ([1]; APC 10 mg/kg, individual animals): 86.3991 µM/mg and 171.894 µM/mg and 414.053 µM/mg and 275.641 µM/mg and 201.326 µM/mg
liver TG normolized by protein, group mean ([1]; APC 10 mg/kg, n=5): 229.9
plasma NEFA ([1]; APC 10 mg/kg, individual mice): 1.19 mM (2×) and 1.033 mM and 1.294 mM and 1.373 mM
plasma NEFA, Mean 2 (group mean) ([1]; APC 10mg/kg, n=5): 1.216
liver TG normolized by protein ([1]; APC 20 mg/kg, individual animals): 85.5962 µM/mg and 137.868 µM/mg and 107.422 µM/mg and 121.195 µM/mg and 111.821 µM/mg
plasma NEFA ([1]; APC 20 mg/kg, individual mice): 1.765 mM and 1.686 mM and 1.451 mM and 1.242 mM and 1.507 mM
plasma NEFA, Mean 2 (group mean) ([1]; APC 20mg/kg, n=5): 1.53
liver glycerol/protein [1, 2]: 49.7505 nM/mg and 67.3705 nM/mg and 57.1365 nM/mg and 57.0635 nM/mg and 49.612 nM/mg
hepatic NEFA [1, 2]: 39.07 mM/mg protein and 106.88 mM/mg protein and 150.80 mM/mg protein and 112.30 mM/mg protein and 101.67 mM/mg protein
liver NEFA, Mean 2 (group mean) ([1]; APC-10mg/kg, n=5): 102.1
liver glycerol/protein [1, 3]: 43.0466 nM/mg and 45.5622 nM/mg and 43.2605 nM/mg and 44.1634 nM/mg and 41.762 nM/mg
hepatic NEFA [1, 3]: 39.34 mM/mg protein and 26.14 mM/mg protein and 65.42 mM/mg protein and 29.72 mM/mg protein and 45.95 mM/mg protein
liver NEFA, Mean 2 (group mean) ([1]; APC-20mg/kg, n=5): 41.31
NEFA and glycerol levels in the liver ([1]; DIO mice): reduced
NEFA levels in the plasma ([1]; DIO mice): significantly enhanced
TG in serum and liver; TC, LDL-C, HDL-C, VLDL-C in serum ([1]; DIO mice, i.p. daily 5 weeks): reduced
Plasma total cholesterol, Mean Diff. vs. VEH ([1]; Figure 6h, CRTC2KO mice): 5.091 mg/dL
Plasma total cholesterol, Mean 1 (drug group) ([1]; Figure 6h, CRTC2KO mice): 223.9 mg/dL
TC in plasma_CRTC2KO (plasma total cholesterol) ([1]; Figure 6h, CRTC2KO mice, individual mice): 238.201 mg/dL and 210.746 mg/dL and 206.493 mg/dL and 224.280 mg/dL and 219.253 mg/dL and 244.388 mg/dL
Plasma total cholesterol, Mean Diff. vs. VEH ([1]; Figure 6h, WT mice): -70.45 mg/dL
Plasma total cholesterol, Mean 1 (drug group) ([1]; Figure 6h, WT mice): 208.1 mg/dL
TC in plasma_WT (plasma total cholesterol) ([1]; Figure 6h, WT mice, individual mice): 239.748 mg/dL and 207.149 mg/dL and 201.100 mg/dL and 213.669 mg/dL and 202.239 mg/dL and 184.451 mg/dL
Plasma HDLC, group mean [1, 4]: 108.7
Plasma LDLC, group mean [1, 4]: 35.65
Plasma TC, group mean [1, 4]: 159.1
Plasma cholesterol fraction: HDL-C [1, 5]: 121.556 mg/dL and 100.915 mg/dL and 96.3277 mg/dL and 114.676 mg/dL and 110.089 mg/dL
Plasma cholesterol fraction: TC [1, 5]: 183.52 mg/dL and 143.341 mg/dL and 133.376 mg/dL and 156.357 mg/dL and 178.886 mg/dL
Plasma cholesterol fraction: lDL-C [1, 5]: 34.819 mg/dL and 32.859 mg/dL and 26.6884 mg/dL and 35.653 mg/dL and 48.218 mg/dL
plasma VLDL-C in HF mice [1, 5]: 7.592 mM and 8.572 mM and 12.094 mM and 7.185 mM and 10.797 mM
